Columns and labels:
[1] = Affinity of the amino acid with copper; format: physicochemical
[2] = system: Endothelial cells (HUVEC, BAEC); experiment: Endothelial cell proliferation; format: cell-based, human / bovine; conditions: 48 hours; copper equivalent; NA = less than 50% at 1.25 mM copper equivalent; read-out: EC proliferation (EC50 mM)
Experimental: Endothelial and tumor cell proliferation assays were performed to determine the ability of test samples to inhibit endothelial cell proliferation (antiangiogenic activity), normal cell proliferation,and tumor cell proliferation.
Endothelial cells (Human umbilical vein endothelial cells (HUVEC), bovine aortic endothelial cells (BAEC)), skeletal muscle cells, human dermal fibroblasts (all from Clonetics, Walkersville, Md.) were respectively maintained in EBM-2, MDEM, SKGM and FGFM-2 complete media according to manufacturer's instructions. Tumor rat glioblastoma cell line (C6) was maintained in DMEM (Sigma, Oaksville, Ontario) supplemented with 10% fetal calf serum (FCS) and antibiotics in 5% CO2. Briefly, cells seeded in 96-well sterile tissue culture dishes were treated with increasing concentrations of different test samples for a period of 48 hours at 37° C. Cell number was then evaluated by a calorimetric assay using the cell proliferation reagent tetrazolium salt and the fluorimetric assay using DNA dye (Hoescht) according to the procedure established by the manufacturer (Boehringer Mannhein). The conversion of these tetrazolium salts into formazan occurs only in metabolically active cells. The percentage of cell inhibition was determined by comparison to untreated cells.
(§1) According to the endothelial cell proliferation assay, the relative effectiveness of two compounds is compared by reference to the EC50 thereof. The EC50 is the concentration of compound at which the number of endothelial cells is reduced by 50% as compared to control. The efficacy of the test samples in EVT is established by the percent of eggs with altered angiogenesis at a given inhibitor dose of 0.6 mg of copper equivalent (see FIG. 6 for examples). A comparison of the antiangiogenic activity of the compounds of the present invention with divalent metal salts (CuCl2, MgCl2, ZnCl2, CoCl2) and uncoupled alpha-amino acids, alpha-imino acids, dipeptides, and nitrogenated molecules comprising a carboxylic acid group, such as creatine, is provided to illustrate that the formation of the amino acid-copper complex gives rise to complexes having antiangiogenic activity.

[3] = system: blood vessel formation in the vitelline membrane of chick embryo; experiment: Embryonic Vascularization Test (EVT); format: in vivo
Experimental: The Embryonic Vascularization Test (EVT) was performed to determine the ability of test samples to inhibit the formation of new blood vessels (antiangiogenic activity).
The normal development of a chick embryo involves the formation of an external vascular system located in the vitelline membrane which carries nutrients from the vitellus (yolk) to the developing embryo. When placed onto the vitelline membrane, antiangiogenic substances can inhibit the blood vessel formation that occurs in the vitelline membrane. Briefly, methylcellulose discs (an inert solid and transparent matrix) containing different test samples were placed on the external border of the vascular perimeter of the vitelline membrane, where the angiogenic process occurs. Vascularization was assessed 24 hours after disc deposition, and results were expressed as the percent of embryos in which blood vessel formation was affected. The blood vessel formation was considered affected when its growing path was either deviated, or diminished or when there was no growth observed beyond the disc as compared to the negative control. The results are expressed as 0, +, and ++ where 0 is for a lower response than 25 percent of the eggs; + is for a response between 25 and 50 percent; and ++ is for an antiangiogenic response observed in more than 50 percent of the eggs.
as §1

Affinity of the AA with Cooper [1]: 16.0
Substance: L-Asp Cu L-Asp [Compound 6]
EC50 [2]: 0.29 mM
EVT (% of inhibition) ([3]; 0.6 mg copper equivalent, percent of embryos with affected blood vessel formation, 24 hours after disc deposition): ±38% of inhibition
EVT (% of inhibition) ([3]; activity at 0.6 mg equivalent Copper): + (+ between 25-50% of inhibition)
